Like-named read-outs stand apart in the source and are kept apart here.
Tested on: Mycobacterium avium subsp. paratuberculosis CIT03
Experiment: In vitro antimycobacterial evaluation (MIC/IC90, alamarBlue)
Format: cell-based
Details: for MIC: Mycobacterium avium
Description: The MIC/IC90 value is routinely and widely used in bacterial assays and is a standard detection limit according to the Clinical and Laboratory Standards Institute.
A well-characterized clinical isolate of Mycobacterium avium subsp. paratuberculosis (CIT03) was grown in Middlebrook broth (MB), supplemented with Oleic-Albumin-Dextrose-Catalase supplement (OADC, Becton, Dickinson and Comp., Franklin Lakes, NJ, USA) and mycobactin J (2 µg/mL). Identification of this isolate was performed using biochemical and molecular protocols. At log phase growth, a culture sample (10 mL) was centrifuged at 15,000 rpm/20 min using a bench top centrifuge (Model CR 4-12, Jouan Inc., Winchester, VA, USA). Following removal of the supernatant, the pellet was washed in fresh Middlebrook 7H9GC broth and re-suspended in fresh supplemented MB (10 mL). The turbidity was adjusted to match McFarland standard No. 1 (3 × 10^8 cfu) with MB broth. A further 1:20 dilution of the culture was then performed in MB broth. The antimicrobial susceptibility of the mycobacterial species was investigated in a 96-well plate format. In these experiments, sterile deionized water (300 µL) was added to all outer-perimeter wells of the plates to minimize evaporation of the medium in the test wells during incubation. Each evaluated compound (100 µL) was incubated with the mycobacterial species (100 µL). Dilutions of each compound were prepared in duplicate. For all synthesized compounds, final concentrations ranged from 1,000 µg/mL to 8 µg/mL. All compounds were prepared in DMSO and subsequent dilutions were made in supplemented MB. The plates were sealed with parafilm and incubated at 37 °C for 11 days.
Following incubation, a 10% addition of alamarBlue (AbD Serotec, Kidlington, UK) was mixed into each well and readings at 570 nm and 600 nm were taken, initially for background subtraction and subsequently after 24 h re-incubation. […] For non-interfering compounds, a blue colour in the well was interpreted as an absence of growth and a pink colour was scored as growth. Furthermore percent reduction of alamarBlue was calculated to generate quantitative data on cell viability during exposure to antimycobacterial compounds over a period of 5 days. The formula used to determine percent reduction of alamarBlue has been standardized for colorimetric analysis by Abd Serotec.
The MIC value is routinely and widely used in bacterial assays and is a standard detection limit according to the Clinical and Laboratory Standards Institute.

[1] = M. avium subsp. paratuberculosis, comparison of MICs

Cc1ccc(NC(=O)c2cccc3ccccc23)cc1 [Compound 3c, N-(4-Methylphenyl)naphthalene-1-carboxamide]
antimycobacterial activity relative to ciprofloxacin [1]: three-fold higher
antimycobacterial activity relative to rifampicin [1]: two-fold higher
MIC (264 h, clinical isolate CIT03, 11 days at 37 °C, alamarBlue, MIC = 90% or greater reduction of growth, read-out: MAP MIC/IC90): 57 µM
MIC (clinical isolate CIT03, read-out: MIC): 15 µg/mL
MAP MIC/IC90 (clinical isolate CIT03, 11 days at 37 °C, alamarBlue, MIC = 90% or greater reduction of growth): 57 µM

From paper PMC6270837, “Preparation and Biological Properties of Ring-Substituted Naphthalene-1-Carboxanilides” (Molecules, 2014)
